Patent publication US8633204B2 (Pfizer Inc., priority 2006, dated 2014)

Columns and labels:
[1] = test system: PI3-K in BT20 cells (phosphorylation of AKT at serine 473); test: PI3-Kα Cellular Assay (AKT Ser473 phosphorylation ELISA in BT20 cells); type: cell-based, human; conditions: Homo sapiens, BT-20, pAKT Ser473 ELISA, 1 hour incubation
Summary of the method: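 Cells seeded overnight in 0.5% FBS, then exposed 1 h at 37 °C to an 11-concentration 1:3 dilution series, in duplicate.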

PI3-Kα = PI3-Kα (Mus musculus (Mouse), UniProt P42337); test: PI3-Kα Biochemical Assay (fluorescence polarization kinase assay)
Protocol: Compounds of the present invention were evaluated for potency against PI3-Kα using an in vitro kinase assay. PI3-Kα activity is measured in vitro by determining the level of phosphorylation of the substrate PI(4,5)P2. The formation of product PI(3,4,5)P3 is monitored by binding to the Grip1 PH domain in a ligand displacement fluorescence polarization (FP) assay, in which the TAMRA-labeled PI(3,4,5)P3 complexed with Grip1 PH domain is displaced by PI(3,4,5)P3 formed in the PI3-Kα reaction resulting in a decrease in FP signal. Mouse PI3-Kα P110 and P85 subunits were co-expressed in insect cells and co-purified to homogeneity. PI(4,5)P2 were obtained from Cayman. TAMRA-labeled PI(3,4,5)P3 were from Echelon, Grip1 PH domain from Dundee and other reagents were from Sigma.
All assays were performed in a Corning solid black 96-well half area plate using LJL Analyst (Molecular Devices) at room temperature. The assay buffer contained 50 mM HEPES, pH 7.4, 150 mM NaCl, 5 mM DTT, and 0.05% CHAPS. Dry powder PI(4,5)P2 was dissolved in 50 mM TRIS, pH 8 to make 1 mM stock solution. The PI(4,5)P2 stock solution was then diluted in the assay buffer to 60 μM, and sonicated for 30 sec before use. To the assay plate, the following reagents were added in sequence: 10 μL of 60 μM PI(4,5)P2, 5 μL of 4 nM PI3-Kα, 2 μL of compound in 25% DMSO, 3 μL of mixture containing 200 μM ATP and 33 mM MgCl2. The final volume for the reaction was 20 μL. The reaction mixture was incubated at room temperature for 35 min. The reaction was then stopped by 20 μL of 20 mM EDTA. […] The FP signal was allowed to develop for 40 min before reading on a LJL analyst at excitation 535 nm and emission 580 nm.
The percentage of inhibition was calculated based on the following equation % inhibition=[1−(FPcompound−FPmax)/(FPmin−FPmax)]×100, where FPcompound is the FP reading at a given compound concentration, FPmin is the FP signal of the PI3-Kα reaction in the absence of a compound, and FPmax is the background FP signal in the absence of PI3-Kα and a compound. The IC50 was determined by fitting the FP signal vs. compound concentration to a sigmoidal dose response equation using GraphPad Prism curve fitting program.

Chain of PI3-Kα (P42337 whole entry, the tested form may be a part): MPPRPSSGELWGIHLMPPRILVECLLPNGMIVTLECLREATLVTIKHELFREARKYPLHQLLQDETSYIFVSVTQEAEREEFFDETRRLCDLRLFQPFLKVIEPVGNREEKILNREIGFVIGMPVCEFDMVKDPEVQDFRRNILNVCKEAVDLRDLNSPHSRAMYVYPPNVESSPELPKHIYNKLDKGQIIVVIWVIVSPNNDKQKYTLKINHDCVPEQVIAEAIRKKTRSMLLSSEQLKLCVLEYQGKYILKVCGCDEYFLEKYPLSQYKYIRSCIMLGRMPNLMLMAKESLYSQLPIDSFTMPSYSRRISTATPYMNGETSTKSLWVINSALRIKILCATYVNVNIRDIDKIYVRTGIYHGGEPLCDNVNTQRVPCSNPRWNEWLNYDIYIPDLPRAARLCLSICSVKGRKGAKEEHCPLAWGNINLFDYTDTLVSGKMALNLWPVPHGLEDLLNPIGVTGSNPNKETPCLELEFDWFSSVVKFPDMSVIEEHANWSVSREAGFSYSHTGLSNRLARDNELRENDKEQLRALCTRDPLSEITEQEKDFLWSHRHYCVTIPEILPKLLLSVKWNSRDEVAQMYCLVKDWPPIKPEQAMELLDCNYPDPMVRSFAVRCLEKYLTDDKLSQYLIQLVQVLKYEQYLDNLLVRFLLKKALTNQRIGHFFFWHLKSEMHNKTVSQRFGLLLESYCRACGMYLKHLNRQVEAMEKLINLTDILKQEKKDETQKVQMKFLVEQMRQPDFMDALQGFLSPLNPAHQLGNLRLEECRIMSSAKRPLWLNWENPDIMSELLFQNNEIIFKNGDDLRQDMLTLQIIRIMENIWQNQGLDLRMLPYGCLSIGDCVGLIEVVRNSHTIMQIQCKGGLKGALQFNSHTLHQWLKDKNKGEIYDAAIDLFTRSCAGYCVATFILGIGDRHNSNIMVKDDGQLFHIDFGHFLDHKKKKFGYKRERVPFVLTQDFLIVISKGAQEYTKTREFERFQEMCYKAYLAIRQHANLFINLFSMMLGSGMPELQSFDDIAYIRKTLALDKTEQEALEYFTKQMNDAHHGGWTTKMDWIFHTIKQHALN
Chain of PI3-Kα (P26450 whole entry partner, the tested form may be a part): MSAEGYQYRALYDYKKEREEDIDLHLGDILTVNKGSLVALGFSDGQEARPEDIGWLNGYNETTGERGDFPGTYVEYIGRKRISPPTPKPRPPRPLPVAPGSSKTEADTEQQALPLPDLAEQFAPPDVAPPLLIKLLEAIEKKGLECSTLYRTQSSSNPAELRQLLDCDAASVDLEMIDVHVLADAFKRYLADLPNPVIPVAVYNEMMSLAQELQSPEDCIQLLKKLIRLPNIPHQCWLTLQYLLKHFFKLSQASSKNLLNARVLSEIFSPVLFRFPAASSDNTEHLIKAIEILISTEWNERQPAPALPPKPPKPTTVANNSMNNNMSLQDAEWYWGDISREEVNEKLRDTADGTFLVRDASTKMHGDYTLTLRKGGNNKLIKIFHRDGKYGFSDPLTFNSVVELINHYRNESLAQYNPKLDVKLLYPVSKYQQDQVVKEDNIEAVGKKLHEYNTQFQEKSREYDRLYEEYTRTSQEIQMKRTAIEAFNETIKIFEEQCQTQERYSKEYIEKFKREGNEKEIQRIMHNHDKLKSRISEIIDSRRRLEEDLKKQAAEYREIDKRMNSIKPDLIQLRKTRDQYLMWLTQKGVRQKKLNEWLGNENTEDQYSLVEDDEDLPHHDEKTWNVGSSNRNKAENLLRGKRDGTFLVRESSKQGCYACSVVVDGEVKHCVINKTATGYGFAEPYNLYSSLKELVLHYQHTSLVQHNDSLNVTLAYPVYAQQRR

CCNc1nc(C)c2cc(-c3cnc4[nH]ccc4c3)c(=O)n(C3CCCC3)c2n1 [Compound 135, 8-cyclopentyl-2-(ethylamino)-4-methyl-6-(1H-pyrrolo[2,3-b]pyridin-5-yl)pyrido[2,3-d]pyrimidin-7(8H)-one]
IC50 [1]: 46.1 nM
IC50 (PI3-Kα): 1.77 nM

COc1cc(-c2cc3c(C)nc(N)nc3n(C3CCCC3)c2=O)ccc1O [Compound 137, 2-amino-8-cyclopentyl-6-(4-hydroxy-3-methoxyphenyl)-4-methylpyrido[2,3-d]pyrimidin-7(8H)-one]
IC50 [1]: 19 nM
IC50 (PI3-Kα): 0.989 nM

CNc1nc(C)c2cc(-c3ccc(Cl)nc3)c(=O)n(C3CCCC3)c2n1 [Compound 138, 6-(6-chloropyridin-3-yl)-8-cyclopentyl-4-methyl-2-(methylamino)pyrido[2,3-d]pyrimidin-7(8H)-one]
IC50 [1]: 146 nM
IC50 (PI3-Kα): 29.7 nM

CCNc1nc(C)c2cc(-c3cccc(OC)c3)c(=O)n(C3CCCC3)c2n1 [Compound 142, 8-cyclopentyl-2-(ethylamino)-6-(3-methoxyphenyl)-4-methylpyrido[2,3-d]pyrimidin-7(8H)-one]
IC50 [1]: 1390 nM
IC50 (PI3-Kα): 792 nM

CNc1nc(C)c2cc(-c3cccc(OC)c3)c(=O)n(C3CCCC3)c2n1 [Compound 143, 8-cyclopentyl-6-(3-methoxyphenyl)-4-methyl-2-(methylamino)pyrido[2,3-d]pyrimidin-7(8H)-one]
IC50 [1]: 669 nM
IC50 (PI3-Kα): 244 nM

COc1cccc(-c2cc3c(C)nc(N)nc3n(C3CCCC3)c2=O)c1 [Compound 145, 2-amino-8-cyclopentyl-6-(3-methoxyphenyl)-4-methylpyrido[2,3-d]pyrimidin-7(8H)-one]
IC50 [1]: 622 nM
IC50 (PI3-Kα): 168 nM

CNc1nc(C)c2cc(-c3cccc(O)c3)c(=O)n(C3CCCC3)c2n1 [Compound 146, 8-cyclopentyl-6-(3-hydroxyphenyl)-4-methyl-2-(methylamino)pyrido[2,3-d]pyrimidin-7(8H)-one]
IC50 [1]: 1.76 nM
IC50 (PI3-Kα): 0.731 nM

Cc1nc(N)nc2c1cc(-c1cccc(O)c1)c(=O)n2C1CCCC1 [Compound 147, 2-Amino-8-cyclopentyl-6-(3-hydroxyphenyl)-4-methylpyrido[2,3-d]pyrimidin-7(8H)-one]
IC50 [1]: 4.84 nM
IC50 (PI3-Kα): 0.524 nM

CNc1nc(C)c2cc(-c3cccc(CO)c3)c(=O)n(C3CCCC3)c2n1 [Compound 148, 8-Cyclopentyl-6-(3-(hydroxymethyl)phenyl)-4-methyl-2-(methylamino)pyrido[2,3-d]pyrimidin-7(8H)-one]
IC50 [1]: 14.7 nM
IC50 (PI3-Kα): 4.78 nM

COc1ccc(Cn2c(=O)c(-c3ccccc3)cc3c(C)nc(N)nc32)cc1 [Compound 149, 8-(4-Methoxybenzyl)-2-amino-4-methyl-6-phenylpyrido[2,3-d]pyrimidin-7(8H)-one]
IC50 [1]: > 10000 nM
IC50 (PI3-Kα): 310 nM

Cc1nc(N)nc2c1cc(-c1ccccc1)c(=O)n2Cc1ccc(Cl)cc1 [Compound 150, 8-(4-Chlorobenzyl)-2-amino-4-methyl-6-phenylpyrido[2,3-d]pyrimidin-7(8H)-one]
IC50 [1]: > 10000 nM
IC50 (PI3-Kα): 1400 nM

Cc1nc(N)nc2c1cc(-c1ccncc1)c(=O)n2Cc1ccc(Cl)cc1 [Compound 151, 8-(4-Chlorobenzyl)-2-amino-4-methyl-6-(pyridin-4-yl)pyrido[2,3-d]pyrimidin-7(8H)-one]
IC50 [1]: > 10000 nM
IC50 (PI3-Kα): 4900 nM

Cc1nc(N)nc2c1cc(-c1cnn(C)c1)c(=O)n2[C@H]1CC[C@H](O)CC1 [Compound 154, 2-amino-8-(trans-4-hydroxycyclohexyl)-4-methyl-6-(1-melhyl-1H-pyrazol-4-yl)pyrido[2,3-d]pyrimidin-7(8H)-one]
IC50 [1]: 475 nM
IC50 (PI3-Kα): 18 nM

COc1ccc(-c2cc3c(C)nc(N)nc3n([C@@H]3CC[C@H](O)C3)c2=O)cn1 [Compound 155, 2-amino-8-[(1R,3S)-3-hydroxycyclopentyl]-6-(6-methoxypyridin-3-yl)-4-methylpyrido[2,3-d]pyrimidin-7(8H)-one]
IC50 [1]: 82.9 nM
IC50 (PI3-Kα): 11 nM
